Source: patent US20230302150A1, “ANTIBODY-TLR AGONIST CONJUGATES, METHODS AND USES THEREOF” (Ambrx, Inc., priority 2020, published 2023)
Like-named read-outs stand apart in the source and are kept apart here.

Key:
[1] = system: SKBR3 HER2 high expressing tumor cell line / RAW-Blue cells; assay: RAW-Blue co-culture assay with SKBR3 tumor cells (HER2 ISACs); assay type: cell-based, human
Procedure: RAW-Blue™ cells (Invivogen, San Diego, CA) were co-cultured with human tumor cells with different levels of HER2 expression level at 1:1 E:T ratio with total number of 1 million cells per well in the 96 wells plate. Different concentration of small molecule TLR7 agonist and conjugated ISACs, (Immune Stimulating Antibody Conjugates), were added to the co-culture cell medium. After 24 h incubation, the levels of NF-kB-induced SEAP from the RAW-Blue™ cells were determined by Quanti-Blue detection reagents (Invivogen, San Diego, CA) with readings at OD 655 nm. The dose-response curves were generated using Prism Software.

hTLR7 = biological target: T1, hTLR7 (Homo sapiens, UniProt Q9NYK1); assay: HEK-Blue hTLR7 reporter assay (NF-kB-induced SEAP, Quanti-Blue); assay type: cell-based
T1 construct: expressed in transfected cells; host or cells: HEK-Blue hTLR7 reporter cell line
T1 sequence (Q9NYK1 27-1049): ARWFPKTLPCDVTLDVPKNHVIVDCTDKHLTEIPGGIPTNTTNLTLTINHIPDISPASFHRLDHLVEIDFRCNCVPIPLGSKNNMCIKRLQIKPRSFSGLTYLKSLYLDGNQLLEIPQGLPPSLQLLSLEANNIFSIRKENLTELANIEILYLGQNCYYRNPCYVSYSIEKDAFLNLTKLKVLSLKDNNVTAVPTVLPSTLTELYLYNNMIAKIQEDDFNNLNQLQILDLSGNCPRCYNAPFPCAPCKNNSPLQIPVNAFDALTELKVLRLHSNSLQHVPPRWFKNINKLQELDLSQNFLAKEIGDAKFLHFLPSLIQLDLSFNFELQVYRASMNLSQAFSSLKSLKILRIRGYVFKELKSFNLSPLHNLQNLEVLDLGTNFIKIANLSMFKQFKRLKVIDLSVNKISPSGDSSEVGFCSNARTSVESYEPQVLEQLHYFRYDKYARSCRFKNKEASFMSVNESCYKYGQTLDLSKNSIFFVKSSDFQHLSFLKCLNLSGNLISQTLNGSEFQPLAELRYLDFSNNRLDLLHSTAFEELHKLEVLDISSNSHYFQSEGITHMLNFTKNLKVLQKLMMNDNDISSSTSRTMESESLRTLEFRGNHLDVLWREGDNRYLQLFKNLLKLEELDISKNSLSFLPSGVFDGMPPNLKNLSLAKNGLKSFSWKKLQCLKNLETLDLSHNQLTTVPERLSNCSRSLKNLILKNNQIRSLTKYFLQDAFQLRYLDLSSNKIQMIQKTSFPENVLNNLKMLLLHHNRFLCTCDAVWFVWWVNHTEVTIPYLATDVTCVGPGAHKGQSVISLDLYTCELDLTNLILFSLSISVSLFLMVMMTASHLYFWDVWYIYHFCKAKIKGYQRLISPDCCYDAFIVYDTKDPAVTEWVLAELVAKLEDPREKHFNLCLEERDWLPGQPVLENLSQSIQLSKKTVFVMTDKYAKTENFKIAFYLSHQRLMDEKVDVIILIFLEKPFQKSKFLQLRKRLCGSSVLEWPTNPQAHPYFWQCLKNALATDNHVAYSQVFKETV
Procedure: HEK-Blue™ hTLR7 cells were incubated in HEK-Blue™ Detection medium and stimulated with increasing concentrations of TLR7 or TLR8 or TLR7/8 agonists. […] The EC50 was determined from dose-response curve using Prism Software.

[2] = Table 12, TLR7 agonists attached to a linker, read-out: TLR Agonist Payload + Linkers EC50
[3] = Table 15, drug linker, read-out: TLR Agonist + Linker (DL) - EC50
[4] = Table 15, pAF containing final metabolite, read-out: TLR Agonist + Linker + nnAA (DL-pAF) - EC50
[5] = Table 19, TLR7, drug-linkers with PEG shielding, read-out: EC50

Compound | tumor dependent ISAC activity [1] | TLR7 activity (comparison in words) (hTLR7) | EC50 (hTLR7; [2]) [nM] | EC50 (hTLR7; [3]) [nM] | EC50 (hTLR7; [4]) [nM] | EC50 (hTLR7; Table 13, TLR7, read-out: EC50) [nM] | EC50 (hTLR7; [5]) [nM] | further results
CCCCOc1nc(N)c2[nH]c(=O)n(Cc3ccc(CN4CCC(CCNC(=O)CON)CC4)cc3)c2n1 [AXC-879, N-(2-(1-(4-((6-amino-2-butoxy-8-oxo-7H-purin-9(8H)-yl)methyl)benzyl)piperidin-4-yl)ethyl)-2-(aminooxy)acetamide] | highest HER2 dependent TLR7 activities | highest potency among different TLR-agonist (payload) linkers | 151 | 151 | 90 |  |  | 
CCCCOc1nc(N)c2[nH]c(=O)n(Cc3ccc(CN4CCC(C5CCN(C(=O)CON)CC5)CC4)cc3)c2n1 [AXC-901, 6-amino-9-(4-((1′-(2-(aminooxy)acetyl)-4,4′-bipiperidin-1-yl)methyl)benzyl)-2-butoxy-7H-purin-8(9H)-one] | highest HER2 dependent TLR7 activities | highest potency among different payload linkers |  |  |  | 48 |  | 
CCCCOc1nc(NC(C)=O)c2[nH]c(=O)n(Cc3ccc(CN4CCC(C5CCN(C(=O)CON)CC5)CC4)cc3)c2n1 [AXC-981, N-(9-(4-((1′-(2-(aminooxy)acetyl)-4,4′-bipiperidin-1-yl)methyl)benzyl)-2-butoxy-8-oxo-8,9-dihydro-7H-purin-6-yl)acetamide] |  |  |  |  |  |  | 10.1 | 
CCCCOc1nc(NC(=O)CCOCCOCCOC)c2[nH]c(=O)n(Cc3ccc(CN4CCC(CCN)CC4)cc3)c2n1 [AXC-982, N-(9-(4-((4-(2-aminoethyl)piperidin-1-yl)methyl)benzyl)-2-butoxy-8-oxo-8,9-dihydro-7H-purin-6-yl)-3-(2-(2-methoxyethoxy)ethoxy)propanamide] |  |  |  |  |  |  | 19.1 | 
CCCCOc1nc(NC(=O)CCOCCOCCOC)c2[nH]c(=O)n(Cc3ccc(CN4CCC(CCNC(=O)CON)CC4)cc3)c2n1 [AXC-983, N-(9-(4-((4-(2-(2-(aminooxy)acetamido)ethyl)piperidin-1-yl)methyl)benzyl)-2-butoxy-8-oxo-8,9-dihydro-7H-purin-6-yl)-3-(2-(2-methoxyethoxy)ethoxy)propanamide] |  |  |  |  |  |  | 53.3 | 
CCCCNc1nc(N)c2[nH]c(=O)n(Cc3ccc(OCCN(C)C)nc3)c2n1 [DSR-6434, reference compound] |  |  | 14.8 | 15 | 11 | 9 | 14 | EC50 (hTLR7; Table 10, read-out: TLR7 EC50): 9.2 nM; EC50 (hTLR7; Table 11, TLR7 activities, read-out: EC50): 15.8 nM; EC50 (hTLR7; Table 14, read-out: TLR7 EC50): 10.5 nM
